# From patent EP4786464A1, “COMPOUND AS GLUTAMINE CYCLASE INHIBITOR” (Simcere Pharmaceutical Co., Ltd., priority 2023, dated 2025)
# Assays:
# [1] = target: T1, human QPCT (Homo sapiens, UniProt Q16769); assay: Inhibition of human QPCT enzyme activity (SensoLyte Green Glutaminyl Cyclase Activity Assay Kit); format: biochemical; conditions: fluorescence Ex/Em = 490 nm/520 nm
# T1 construct: purchased Anaspec AS-72230
# Experimental: (§1) The inhibition of human QPCT/QPCTL enzyme activity by the compounds was assessed using SensoLyte® Green Glutaminyl Cyclase Activity Assay Kit.
# (§2) The working solutions of the test compounds were serially 6-fold diluted from an initial concentration of 200 µM to 7 concentration points in total. In the 75 µL reaction system, the initial working concentration of the test compound was 13.3 µM, and the final concentration of DMSO was 0.3%. 20 µL of prepared QPCT enzyme solution, 5 µL of test compound, and 25 µL of QPCT enzyme substrate were successively added to each well of a 384-well plate. The mixture was shaken on a microplate shaker for 1 min, centrifuged at 400 g for 1 min, and incubated at 37 °C for 30 min. Then, 25 µL of QPCT developer was added to each well, and the mixture was sufficiently mixed using a shaker for 1 min, centrifuged at 400 g for 1 min, and incubated at 37 °C for another 60 min. After the incubation was completed, the fluorescence values were read using a microplate reader, with parameter settings as follows: Ex/Em = 490 nm/520 nm. […] Curves were plotted using GraphPad Prism 9 software with the compound concentration (nM) as the abscissa and the enzyme activity inhibition rate (%) as the ordinate. Four-parameter fitting was performed, and the IC50 values for the inhibition of the QPCT enzyme activity by the compounds were calculated.
# [2] = target: T2, human QPCTL (Homo sapiens, UniProt Q9NXS2); assay: Inhibition of human QPCTL enzyme activity (adjusted SensoLyte Green Glutaminyl Cyclase Activity Assay Kit); format: biochemical; conditions: human QPCTL enzyme (Sino Biological)
# T2 construct: purchased Sino Biological NXS6-1
# Experimental: as §1
# as §2, with “0.5 mM QPCT enzyme substrate was diluted to 5 µM with a buffer at a ratio of 1:100; 50 µg/mL QPCT enzyme was diluted to 125 ng/mL with a buffer and placed on ice for later use; QPCT developer was diluted with a buffer at a ratio of 1:250 and placed on ice for later use (the QPCT enzyme substrate, the QPCT enzyme, the buffer, and the QPCT developer were all from the kit). The working” for “The working”
# The SensoLyte® Green Glutaminyl Cyclase Activity Assay Kit was appropriately adjusted by replacing the QPCT enzyme in it with human QPCTL enzyme (Sino Biological, Cat. No. NXS6-1) (the concentration of the working solution was kept unchanged) for determining the IC50 values for the inhibition of human QPCTL enzyme activity by compounds. […]
# [3] = target: T3, CYP2C9 (Homo sapiens, UniProt P11712); assay: Inhibition of CYP2C9 enzyme activity in liver microsomes; format: in vitro ADME; conditions: substrate diclofenac, 15 min
# T3 construct: 1 µL of 20 mg/mL liver microsome solution; from tissue; host or cells: liver microsomes
# [4] = target: T4, CYP2D6 (Homo sapiens, UniProt P10635); assay: Inhibition of CYP2D6 enzyme activity in liver microsomes; format: in vitro ADME; conditions: substrate dextromethorphan, 15 min
# T4 construct: 1 µL of 20 mg/mL liver microsome solution; from tissue; host or cells: liver microsomes
# [5] = target: T5, CYP3A4 (Homo sapiens, UniProt P08684); assay: Inhibition of CYP3A4 enzyme activity in liver microsomes; format: in vitro ADME; conditions: substrate midazolam, 15 min
# T5 construct: 1 µL of 20 mg/mL liver microsome solution; from tissue; host or cells: liver microsomes
# [6] = Metabolic stability in liver microsomes (human); format: in vitro ADME; conditions: pH 7.4; human liver microsomes 0.5 mg/mL, 1 µM compound, 1 mM NADPH; read-out: Half-life (t1/2, min) (human)
# Experimental: (§3) The experimental procedures were as follows: 1. […] 2. Preparation of reaction system The reaction system was prepared as follows:
# (§4) 3. The reaction system was pre-incubated in a 37 °C water bath for 10 min. 20 µL of 10 mM NADPH solution (NADPH was dissolved by 100 mM phosphate-buffered saline) was added to the reaction system with a final concentration of NADPH being 1 mM. 20 µL phosphate-buffered saline was used instead of the NADPH solution to serve as the negative control. The negative control was used to exclude the effect of chemical stability of the compound itself. 4. The reaction was initiated by adding 2 µL of 100 µM compound of the present disclosure and verapamil, the positive control compound, to the reaction system with a final concentration of the compound being 1 µM. 5.
# (§5) All data were calculated using Microsoft Excel software. The peak area was obtained by extracting an ion chromatogram.
# [7] = Metabolic stability in liver microsomes (mouse); format: in vitro ADME; conditions: pH 7.4; mouse liver microsomes 0.5 mg/mL, 1 µM compound, 1 mM NADPH; read-out: Half-life (t1/2, min) (mouse)
# Experimental: as §3, §4, §5
# T1 sequence (Q16769 29-361): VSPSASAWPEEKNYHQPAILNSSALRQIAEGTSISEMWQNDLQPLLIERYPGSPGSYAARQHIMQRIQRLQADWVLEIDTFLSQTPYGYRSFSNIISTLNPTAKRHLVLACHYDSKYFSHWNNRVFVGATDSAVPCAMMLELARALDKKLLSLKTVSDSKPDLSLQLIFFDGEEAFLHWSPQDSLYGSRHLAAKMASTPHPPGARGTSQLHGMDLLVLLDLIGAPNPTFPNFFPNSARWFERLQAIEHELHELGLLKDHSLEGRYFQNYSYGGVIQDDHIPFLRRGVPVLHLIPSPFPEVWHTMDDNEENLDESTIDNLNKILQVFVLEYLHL
# T2 sequence (Q9NXS2 whole entry): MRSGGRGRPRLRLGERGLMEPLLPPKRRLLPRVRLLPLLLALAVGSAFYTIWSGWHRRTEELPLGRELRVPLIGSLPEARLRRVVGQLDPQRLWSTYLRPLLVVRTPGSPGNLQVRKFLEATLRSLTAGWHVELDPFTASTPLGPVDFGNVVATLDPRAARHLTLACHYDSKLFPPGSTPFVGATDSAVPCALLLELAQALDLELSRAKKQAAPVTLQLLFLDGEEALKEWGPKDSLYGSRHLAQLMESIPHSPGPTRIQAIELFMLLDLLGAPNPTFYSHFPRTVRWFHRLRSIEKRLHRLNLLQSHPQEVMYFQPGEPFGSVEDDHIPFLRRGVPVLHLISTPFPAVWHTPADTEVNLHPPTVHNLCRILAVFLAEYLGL
# T4 sequence (P10635 whole entry): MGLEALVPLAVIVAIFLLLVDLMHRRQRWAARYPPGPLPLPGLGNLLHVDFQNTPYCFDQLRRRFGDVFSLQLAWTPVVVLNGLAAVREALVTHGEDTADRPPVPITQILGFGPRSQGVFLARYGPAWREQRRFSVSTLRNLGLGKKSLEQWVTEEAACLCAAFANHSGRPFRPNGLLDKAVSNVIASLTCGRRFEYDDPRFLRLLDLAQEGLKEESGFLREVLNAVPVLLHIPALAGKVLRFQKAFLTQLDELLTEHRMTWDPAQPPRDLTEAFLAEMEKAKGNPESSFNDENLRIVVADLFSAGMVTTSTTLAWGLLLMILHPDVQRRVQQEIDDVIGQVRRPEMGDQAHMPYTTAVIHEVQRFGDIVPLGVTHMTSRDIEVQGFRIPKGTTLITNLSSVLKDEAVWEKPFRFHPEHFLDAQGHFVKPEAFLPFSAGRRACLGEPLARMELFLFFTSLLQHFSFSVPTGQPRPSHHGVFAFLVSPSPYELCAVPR
# T5 sequence (P08684 whole entry): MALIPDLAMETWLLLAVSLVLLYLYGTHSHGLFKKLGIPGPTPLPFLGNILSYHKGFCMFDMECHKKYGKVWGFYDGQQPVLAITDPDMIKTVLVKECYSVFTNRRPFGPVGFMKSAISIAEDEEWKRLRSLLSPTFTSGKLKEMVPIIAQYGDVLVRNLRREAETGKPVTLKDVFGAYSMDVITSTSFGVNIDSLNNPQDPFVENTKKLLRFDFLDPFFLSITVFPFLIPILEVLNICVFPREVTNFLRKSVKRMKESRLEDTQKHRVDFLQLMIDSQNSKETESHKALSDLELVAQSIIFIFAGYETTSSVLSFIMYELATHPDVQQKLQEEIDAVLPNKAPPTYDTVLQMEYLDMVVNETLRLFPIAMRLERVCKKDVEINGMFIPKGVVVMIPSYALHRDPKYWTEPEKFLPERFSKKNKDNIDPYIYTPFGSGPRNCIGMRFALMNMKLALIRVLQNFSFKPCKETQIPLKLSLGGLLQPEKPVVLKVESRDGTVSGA
# T3 sequence (P11712 whole entry): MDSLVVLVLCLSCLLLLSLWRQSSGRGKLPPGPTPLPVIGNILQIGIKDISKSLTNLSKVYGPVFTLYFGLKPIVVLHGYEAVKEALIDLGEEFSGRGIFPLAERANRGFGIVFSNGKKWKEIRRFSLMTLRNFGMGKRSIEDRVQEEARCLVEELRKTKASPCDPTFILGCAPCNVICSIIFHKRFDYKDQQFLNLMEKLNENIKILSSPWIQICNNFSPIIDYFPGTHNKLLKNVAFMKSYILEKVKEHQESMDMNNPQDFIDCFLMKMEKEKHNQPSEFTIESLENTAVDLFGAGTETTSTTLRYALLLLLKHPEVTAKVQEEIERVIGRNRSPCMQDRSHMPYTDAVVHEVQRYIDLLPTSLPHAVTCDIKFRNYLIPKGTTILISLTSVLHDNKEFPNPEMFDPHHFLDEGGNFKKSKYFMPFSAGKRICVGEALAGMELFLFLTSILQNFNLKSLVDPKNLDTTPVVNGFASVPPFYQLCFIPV
Structure (SMILES),IC50 [1] [nM],further results
[2H][C@]1(C23CC(C2)C3)CC(=O)N1c1ccc2[nH]cnc2c1 [Compound 11],42.5,
CCCOC12CC([C@H]3CC(=O)N3c3ccc4[nH]cnc4c3)(C1)C2 [Compound 3],52.4,IC50 [2]: 6.5 nM
O=C1C[C@H](C23CC(F)(C2)C3)N1c1ccc2[nH]cnc2c1 [Compound 2],170,
COC12CC([C@H]3CC(=O)N3c3ccc4[nH]cnc4c3)(C1)C2 [Compound 8],166,
CC12CC([C@H]3CC(=O)N3c3ccc4nc[nH]c4c3)(C1)C2 [Compound 9],37.3,
O=C1C[C@H](C23CC(c4ccncc4)(C2)C3)N1c1ccc2[nH]cnc2c1 [Compound 5],8.5,
O=C1C[C@H](C23CC(CF)(C2)C3)N1c1ccc2nc[nH]c2c1 [Compound 10],58.9,
O=C1C[C@H](C23CC(N4CCOCC4)(C2)C3)N1c1ccc2[nH]cnc2c1 [Compound 7],36.8,IC50 [2]: 25.1 nM; IC50 [3]: > 50000 nM; IC50 [4]: > 50000 nM; IC50 [5]: > 50000 nM; half-life at 1 µM [6]: 316 min; half-life at 1 µM [7]: 325 min
O=C1C[C@H](C23CC(Cl)(C2)C3)N1c1ccc2[nH]cnc2c1 [Compound 13],73.2,
N#Cc1ccc(C23CC([C@H]4CC(=O)N4c4ccc5[nH]cnc5c4)(C2)C3)cc1 [Compound 6],19.1,
O=C1C[C@H](C23CC(c4ccc(F)cc4)(C2)C3)N1c1ccc2[nH]cnc2c1 [Compound 4],10.7,IC50 [2]: 3.9 nM
